Columns and labels:
[1] = biological target: T1, OPRM1 (MOR) in PathHunter CHO-K1 OPRM1 β-Arrestin Cell Line (Homo sapiens, UniProt P35372); experiment: HTRF-cAMP cell assay; assay type: cell-based
T1 construct: host or cells: CHO-K1 (PathHunter engineered line, lot 13K0402)
Method: The cell line used in the following tests was PathHunter® CHO-K1 OPRM1 β-Arrestin Cell Line; origin: DiscoverX, No: 93-0213 C2; lot: 13K0402.
The reagents used, their suppliers, article numbers, and storage temperatures are as follows: • Assay Complete™ Cell Culture Kit 107, DiscoverX, 92-3107G, −20° C.; • AssayComplete™ Thawing Reagent, DiscoverX, 92-4002TR, −20° C.; • AssayComplete™ Cell Detachment Reagent, DiscoverX, 92-0009, −20° C.; • Assay Complete™ Cell Plating Reagent, DiscoverX, 93-0563R2, −20° C.; • PathhunterDetection Kit, DiscoverX, 93-0001, −20° C.; • PBS(1×)0.0067M(PO4), Hyclone, SH30256.01, 4° C.; • DMSO, Sigma, D5879-100 ML, ambient temperature; • NKH477, Sigma, 1603, −20° C.; and • IBMX, Tocris, 15879, −20° C.
(§1) The instruments used, their models and suppliers are as follows: • Countsatr BioMed, IM1200, ALIT; • Microscope, IX51, OLYMPUS; • Centrifuge, 5804, Eppendorf; • Thermostatic Water Bath, DK-S420, ShanghaiShenxian thermostatic equipment factory; • Cell Incubator, 3111, Thermo; • Biological Safety Cabinet, BSC-1300IIA2, AIRTECH; • OptiPlate-384White Opaque, 6007290, Perkin Elmer; • Multimode plate Reader, Victor X5, PerkinElmer; • Culture Plate-384 White Opaque, TC-treated, 6007680, PerkinElmer.
1. Cell passaging steps a to h were repeated until the cells passed to the P8 generation. Cells were counted and resuspended in 2×/1 mM IBMX stimulation buffer to a cell density of 1.2*10^6/ml.
2. 1.2*10^6/ml of cell solution was seeded in a 384-well plate in a volume of 10 μl per well (i.e. 12000 cells per well) by using a multichannel pipettor.
1. Relevant reagents were prepared and the compounds were prepared according to the drug dilution preparation table.
a. […]
g. The plate was read by HTRF.
After 60 minutes of incubation, for all samples, reading plates were detected by homogeneous time-resolved fluorescence method.
The data were exported from the corresponding software in the computer connected with the multi-function plate reader, including two signal values of 665 nm and 620 nm. The ratio is calculated as ratio=665 nm signal value/620 nm signal value×10000. […]

[2] = biological target: T1, OPRM1 (MOR) in PathHunter CHO-K1 OPRM1 β-Arrestin Cell Line; experiment: β-Arrestin cell assay; assay type: cell-based
Method: The cell line used in the following tests was PathHunter® CHO-K1 OPRM1 β-Arrestin Cell Line; origin: DiscoverX, No: 93-0213 C2; lot: 13K0402. […]
as §1, with “PerkinElmer. […]” for “PerkinElmer.”
1. 20 μl of the cell suspension was pipetted using a pipette and the number of the cells was measured using a cell counter. […]
3. At the end of incubation, the plates were read using a multi-function plate reader.
The data were exported from the corresponding software in the computer connected with the multi-function plate reader, and the data were analyzed by using GraphPad Prism software. […]

[3] = maximum effect relative to morphine = 100%

T1 sequence (P35372 whole entry): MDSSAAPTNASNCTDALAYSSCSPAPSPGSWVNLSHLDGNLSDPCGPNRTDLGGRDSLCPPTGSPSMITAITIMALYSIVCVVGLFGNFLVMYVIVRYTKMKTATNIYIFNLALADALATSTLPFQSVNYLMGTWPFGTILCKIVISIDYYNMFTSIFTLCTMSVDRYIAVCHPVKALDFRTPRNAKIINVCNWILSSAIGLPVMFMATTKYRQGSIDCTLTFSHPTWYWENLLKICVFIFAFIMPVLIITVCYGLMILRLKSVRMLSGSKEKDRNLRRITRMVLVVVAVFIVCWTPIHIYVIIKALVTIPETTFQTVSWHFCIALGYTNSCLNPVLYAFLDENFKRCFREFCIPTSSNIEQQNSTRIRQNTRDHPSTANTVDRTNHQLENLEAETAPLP

Compound	EC50 [1]	bias (cAMP versus β-arrestin) ([2]; compared with comparative compound D1, from Tables 5 and 6)	Emax [1, 3]	Emax [2, 3]
CC(C)[C@@H]1C[C@H](NCC[C@@]2(c3ccccn3)CCOC3(CCCC3)C2)c2ccnn21 [Compound of formula X, (4S,6S)-6-isopropyl-N-(2-((R)-9-(pyridin-2-yl)-6-oxaspiro[4.5]decane-9-yl)ethyl)-5,6-dihydro-4H-pyrrolo[1,2-b]pyrazol-4-amine]	6 nM	better bias		
CC(C)C1CCC(NCC[C@@]2(c3ccccn3)CCOC3(CCCC3)C2)c2ccnn21 (some centres unmarked) [Comparative compound D1]	19 nM		52.6%	28.3%

Reference: patent publication US20240317761A1, “PHARMACEUTICALLY ACCEPTABLE SALT OF MOR RECEPTOR AGONIST, AND POLYMORPH THEREOF AND USE THEREOF” (SHANGHAI HAIYAN PHARMACEUTICAL TECHNOLOGY CO., LTD., priority 2021, published 2024)
